Experimental data as given in patent publication US6664368B1, “Inhibition of nuclear import by backbone cyclic peptide analogs” (priority 1997, dated 2003).
Numbered stars: 1 amine (or outer) side, 2 acyl side, 3 side chain; on linkers, the order of the positions; unused ones are H or OH. Bridge positions count the residues as written; N and C are the ends. Square brackets hold non-standard residues; d marks the D form. Ends that are not written are not given here. Peptide text beside a SMILES is read from it. N(6-aminohexyl)Gly = O=C(CN(CCCCCCN[*:3])[*:1])[*:2]; X1 = CC(C)[C@H](NC(=O)CCCCC(=O)[*:1])C(=O)[*:2]

Key:
[1] = tested on: nuclear import of SV40-NLS-BSA (biotinylated BSA-NLS); assay: Quantitative ELISA-based nuclear import assay, inhibition of NLS-BSA (SV40-NLS-BSA) uptake in permeabilized Colo-205 cells; format: cell-based; parameters: key to Nuclear uptake of SV40-BSA: +: most of the cells in the field (more than 70-80%) did show nuclear uptake (presence of fluorescent dye within the nuclei); −: most of the cells in the field (more than 70-80%) did show nuclear uptake (their cytoplasm, and not the nuclei, were fluorescently labeled); details: for Nuclear entry (%) of SV40-NLS-BSA: WGA 0.6 mg/ml or Tat-NLS peptide 1 mg/ml preincubated 30 minutes, entry with cytosolic factors = 100%; for Nuclear uptake of SV40-BSA: in the presence of the free peptide, ELISA-based assay
Description: (§1) Nuclear import was quantitatively determined essentially as described before (Melchior, et al. (1993) J. Cell. Biol. 123 (6). 1649-1659), except that a suspension of Colo-205 cells was used instead of a suspension of HeLa cells and 500 nM biotinylated BSA-NLS were used as a transport substrate. The immunomodule strips were coated with rabbit anti-BSA serum instead of using the IgG fraction. The results given are an average of triplicate determination whose standard deviation never exceeded ±20%.
Nuclear uptake was determined by the ELISA-based assay, except where indicated. IC50 values were determined by using peptides and transport substrates in molar ratios between 500:1 and 0.005:1 respectively. Cysteine residues in all the peptides are not part of the original sequence and were added in order to conjugate them to BSA.
Inhibition of nuclear uptake was estimated by addition of the above listed peptides to a nuclear transport system using SV40-NLS-BSA as a transport substrate.
(§2) Nuclear transport using SV40-NLS-BSA and Tat-NLS-BSA as transport substrates was performed employing the in-vitro ELISA system.

[2] = tested on: nuclear import of Tat-NLS-BSA; assay: In-vitro ELISA nuclear transport with Tat-NLS-BSA as transport substrate; format: cell-based, human; details: WGA 0.6 mg/ml or Tat-NLS peptide 1 mg/ml preincubated 30 minutes; entry with cytosolic factors = 100%
Description: as §1
The entry of the conjugates into nuclei of permeabilized colo cells was estimated as described above. ATP was depleted, WGA (0.6 mg/ml) and Tat-NLS peptide (1 mg/ml) were preincubated for 30 minutes at room temperature with the permeabilized cells before adding the BSA conjugates.
as §2

[3] = tested on: nuclear import of VprN/VprC-BSA conjugate in permeabilized cells; assay: Nuclear import of Vpr peptide-BSA conjugates in permeabilized cells; format: cell-based
Excerpt: Viral protein r (Vpr), an HIV-1 auxiliary protein which mediates nuclear import of the viral preintegration complex (PIC), contains two regions, N- and C-terminal, which have been proposed to function as a nuclear localization signal (NLS). We have synthesized peptides corresponding to both regions (designated as VprN and VprC), conjugated them to bovine serum albumin (BSA), and tested their ability to mediate nuclear import in permeabilized cells.

trypsin = assay: Stability to proteolytic cleavage by trypsin; format: in vitro ADME; details: trypsin solution; room temperature, TEA buffer pH 7.8, HPLC peak area; read-out: half life (t½) of digestion by trypsin (converted)
Description: Method: A mixture containing 0.05 ml of trypsin solution (8% w/v in HCl 0.001M), 0.5 ml TEA buffer pH=7.8 (Geiger, R.; Fritz, H. In Methods of enzymatic analysis; H. U. Bergmeyer, et al. Eds.; Weinheim: Verlag-chemie: 1984; pp 119-129) and 0.2 ml of peptide 22 (BCvir) solution in water (initial concentration of 1.25 mg/ml) was injected to HPLC (C3 column, gradient of 5-60% acetonitrile:TDW containing 0.1% TFA, 35 minutes) immediately after addition of the peptide (t=0). The mixture was incubated at room temperature and samples were injected every 70 min. […] The peak area of the peptide at each time interval was compared to the peak area of the peptide in t=0, as a measure of the relative peptide concentration.

[4] = tested on: translocation of FL-NLS-BSA into nuclei of digitonin-permeabilized HeLa cells; assay: Nuclear import estimated by fluorescence microscopy; format: cell-based; parameters: key: +: most of the cells in the field (more than 70-80%) did show nuclear uptake (presence of fluorescent dye within the nuclei); −: most of the cells in the field (more than 70-80%) did show nuclear uptake (their cytoplasm, and not the nuclei, were fluorescently labeled); details: in the presence of the free peptide; based on fluorescent microscopy observations (footnote 3)
Excerpt: HeLa cells were cultivated on 10 mm coverslips to subconfluent density and then permeabilized with digitonin as described before (Broder, et al. ibid). Linear peptides bearing the NLS signal of the SV40 large T-antigen were covalently attached to fluorescently labeled (with FITC) BSA molecules (Goldfarb, et al. (1986) Nature 322, 641-644) and translocation of the resulting fluorescently labeled-NLS-BSA molecules (FL-NLS-BSA) into nuclei of digitonin-permeabilized HeLa cells was followed by fluorescent microscopy observations, as described (Broder, et al. ibid).

Hut 78 cells = details: 0.1, 1, 10 and 100 μg/ml; 1, 2, 4 and 7 days post seeding
Description: Method: Hut 78 cells (0.5×10^6/ml) were cultured without or with 0.1, 1, 10 and 100 μg/ml of BCvir. The number of living cells was determined by staining with trypan blue 1, 2, 4 and 7 days post seeding,.

[5] = SV40-NLS-BSA substrate, peptide:substrate molar ratios between 500:1 and 0.005:1
[6] = purified peptides, inhibition of nuclear import of NLS-BSA

Molecule | IC50 [1, 5] [µM] | Nuclear uptake of SV40-BSA [1] | other results
wheat germ agglutinin [WGA] |  |  | Nuclear entry (%) of SV40-NLS-BSA [1]: 49.8%; Nuclear entry (%) of Tat-NLS-BSA [2]: 53.6%; inhibition of nuclear import of the VprN conjugate [3]: inhibited
C^48GRKKRRQRRRAHQN^61 (N-terminal cysteine; UniProt P04608 48-61, looked up, fragment) [Tat NLS] | 147 | − | Nuclear entry (%) of SV40-NLS-BSA [1]: 52%; Nuclear entry (%) of Tat-NLS-BSA [2]: 15.4%
NCCCC[C@H](NC(=O)CN1CCCCCCNC(=O)CNC(=O)CCCCC(=O)N[C@@H](CCCCN)C(=O)N[C@@H](CCCCN)C(=O)N[C@@H](CCCCN)C1=O)C(N)=O [peptide 19.4] |  |  | half-life (trypsin): 9 h
C^35RQARRNRRRRWRERQRQ^51 (N-terminal cysteine; UniProt P04618 35-51, looked up, fragment) [Rev NLS] | 347 | − | 
^51ISSEVHIPLGDARLV^65 [Vif 51-65] |  |  | Nuclear uptake of SV40-BSA [4]: +
^88EWRKKRYS^95 (Human Immunodeficiency Virus (HIV-1)) [Vif 88-95] |  | − | 
^30YVSGKARGWFYRHHY^44 [Vif 30-44] |  |  | Nuclear uptake of SV40-BSA [4]: +
GKKKYKLKHC [HIV-MA NLS] |  |  | IC50 [1, 6]: 12 µM
^78DWHLGQGV^85 (Human Immunodeficiency Virus (HIV-1)) [Vif 78-85] |  |  | Nuclear uptake of SV40-BSA [4]: +
CVKRKKKPG (Human Immunodeficiency Virus (HIV-1)) [SV40 reverse] |  | + | 
^41RHHYESPHPRISSEV^55 [Vif 41-55] |  |  | Nuclear uptake of SV40-BSA [4]: +
CGPKNKRKV [SV40 mutant] |  | + | 
CC(C)C[C@H](NC(=O)[C@H](CCCCN)NC(=O)CN1CCCCCCNC(=O)[C@H](C(C)C)NC(=O)CCCCC(=O)N[C@@H](CCCCN)C(=O)N[C@@H](CCCCN)C(=O)N[C@@H](CCCCN)C1=O)C(N)=O [BCvir] (KKK[N(6-aminohexyl)Gly]KL-NH2; linker N-4 via X1) |  |  | effect on growth rate of uninfected cells (Hut 78 cells): did not affect the growth rate; half-life (trypsin): 7 h
C^7KRSMGGWSAIRERMRR^22 [Nef NLS] | 11 | − | 
PKKKRKVC [SV40 large T-antigen NLS] | 0.02 | − | IC50 [1, 6]: 0.001 µM; inhibition of nuclear import of the VprN conjugate [3]: not inhibited
C^88EWRKKRYSTOV^98 [Vif 88-98] (CEWRKKRYSTQV; not fully specified; printed as C^88EWRKKRYSTOV^98 [Vif 88-98]; UniProt P69723 88-98, looked up, fragment) | 62 | − | 
^85VSIEWRKK^92 (UniProt P69723 85-92, looked up, fragment) [Vif 85-92] | 253 | − | 
C^88EWRKKRYSTOV^98 [Vif 88-98 K91L] (CEWRLKRYSTQV; not fully specified; printed as C^88EWRKKRYSTOV^98 [Vif 88-98 K91L]) |  | + | 
